Results on 16 molecules are retold here after PubChem BioAssay (NCI).

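A five-concentration, 48-hour dose response in 96-well plates underlies each endpoint, interpolated linearly between surrounding concentrations. At the TGI there is no net growth.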 Bounds are passed on as bounds.

The first assay relates to NCI-H522 lung. Description: inhibition of tumour cell growth, NCI panel, 48 h.
As for `S=c1[nH]c(=S)c2nnn(-c3ccccc3)c2[nH]1`, the TGI was more than 100 µM.

On to `CC(C)CC(NC(=O)C(CI)Cc1ccccc1)C(=O)Nc1ccccc1` (stereo unspecified), for which the TGI is more than 100 µM.

Molecule `CC(CO)CCNc1ncnc2c1ncn2CCC(=O)OC(C)(C)C` (stereo unspecified) came in with a TGI of more than 100 µM.

`COc1ccc(-n2cnn3c(=O)c4cn[nH]c4nc23)cc1` gave a TGI of more than 10 µM.

On to `CC(C)(C)OC(=O)NC(Cc1ccc(OC(C)(C)C)cc1)C(=O)N[C@H]1CCC[C@H]1C(=O)NC(Cc1ccccc1)C(=O)N1CCCC1C(N)=O` (stereo partly specified), for which the TGI is more than 100 µM.

`c1ccc(NN=C(c2ccccn2)c2ccccn2)nc1` gave a TGI of more than 100 µM.

On to `N#Cc1[nH]c(=S)[nH]c1N`, for which the TGI is more than 100 µM.

As for `N#CC1=C(Nc2ccccc2)SC=C(c2ccccc2)NC1=NCc1ccccc1`, the TGI was more than 100 µM.

For the molecule `COC1=CC2C(c3cc4ccccc4n3S(=O)(=O)c3ccccc3)CC1CN2C(=O)OCc1ccccc1` (stereo unspecified), the TGI is 52.9 µM.

Molecule `COc1ccc(-c2csc(Cc3nc4ccccc4c(=O)n3-c3ccc(Cl)cc3)n2)cc1` registered a TGI of more than 100 µM.

Consider `COc1ccc(NC(=O)N(C)CC2(O)CCC(C(C)(C)C)CC2)cc1` (stereo unspecified), for which the TGI was more than 100 µM.

`CN(C)CCNC(=O)c1ccc2nc3c(nc2c1)C(=O)c1ccccc1-3` gave a TGI of more than 100 µM.

Turning to `C/C(=N/NC(=S)Nc1ccc(Cl)cc1)c1cccc(/C(C)=N\NC(=S)Nc2ccc(Cl)cc2)n1`, the TGI is 27 µM.

As for `COC(=O)C1(C(=O)OC)C/C(C)=C(/C)SCCCS1`, the TGI was more than 100 µM.

Molecule `CC1(C)CC(=O)C(C=NC(=O)c2ccncc2)=C(O)C1` returned a TGI of more than 100 µM.

The next assay concerns K-562 leukemia. The experiment in a line: inhibition of tumour cell growth, NCI panel, 48 h.
`S=c1[nH]c(=S)c2nnn(-c3ccccc3)c2[nH]1`: the TGI is more than 100 µM.

In turn, `CC(C)CC(NC(=O)C(CI)Cc1ccccc1)C(=O)Nc1ccccc1` (stereo unspecified) displayed a TGI of more than 100 µM.

`CC(CO)CCNc1ncnc2c1ncn2CCC(=O)OC(C)(C)C` (stereo unspecified) came in with a TGI of more than 100 µM.

`COc1ccc(-n2cnn3c(=O)c4cn[nH]c4nc23)cc1` yielded a TGI of more than 10 µM.

`CC(C)(C)OC(=O)NC(Cc1ccc(OC(C)(C)C)cc1)C(=O)N[C@H]1CCC[C@H]1C(=O)NC(Cc1ccccc1)C(=O)N1CCCC1C(N)=O` (stereo partly specified) returned a TGI of more than 100 µM.

In turn, `c1ccc(NN=C(c2ccccn2)c2ccccn2)nc1` had a TGI of more than 100 µM.

Turning to `N#Cc1[nH]c(=S)[nH]c1N`, the TGI was more than 100 µM.

The molecule `N#CC1=C(Nc2ccccc2)SC=C(c2ccccc2)NC1=NCc1ccccc1` showed a TGI of 97.6 µM.

`COC1=CC2C(c3cc4ccccc4n3S(=O)(=O)c3ccccc3)CC1CN2C(=O)OCc1ccccc1` (stereo unspecified) had a TGI of 76.5 µM.

Turning to `CNC(=S)N=Nc1c(O)n(CN2CCOCC2)c2ccc([N+](=O)[O-])cc12`, the TGI was more than 100 µM.

`COc1ccc(-c2csc(Cc3nc4ccccc4c(=O)n3-c3ccc(Cl)cc3)n2)cc1`: the TGI worked out at 41.8 µM.

As for `COc1ccc(NC(=O)N(C)CC2(O)CCC(C(C)(C)C)CC2)cc1` (stereo unspecified), the TGI is more than 100 µM.

`C/C(=N/NC(=S)Nc1ccc(Cl)cc1)c1cccc(/C(C)=N\NC(=S)Nc2ccc(Cl)cc2)n1` gave a TGI of 45 µM.

`COC(=O)C1(C(=O)OC)C/C(C)=C(/C)SCCCS1`: the TGI is more than 100 µM.

The subject of the next assay is SK-MEL-5 melanoma. The experiment in a line: inhibition of tumour cell growth, NCI panel, 48 h.
`S=c1[nH]c(=S)c2nnn(-c3ccccc3)c2[nH]1` gave a TGI of more than 100 µM.

Molecule `CC(C)CC(NC(=O)C(CI)Cc1ccccc1)C(=O)Nc1ccccc1` (stereo unspecified) returned a TGI of more than 100 µM.

For `CC(CO)CCNc1ncnc2c1ncn2CCC(=O)OC(C)(C)C` (stereo unspecified), the TGI was more than 100 µM.

`COc1ccc(-n2cnn3c(=O)c4cn[nH]c4nc23)cc1` came in with a TGI of more than 10 µM.

Consider `CC(C)(C)OC(=O)NC(Cc1ccc(OC(C)(C)C)cc1)C(=O)N[C@H]1CCC[C@H]1C(=O)NC(Cc1ccccc1)C(=O)N1CCCC1C(N)=O` (stereo partly specified), for which the TGI was more than 100 µM.

The molecule `c1ccc(NN=C(c2ccccn2)c2ccccn2)nc1` displayed a TGI of more than 100 µM.

The molecule `N#Cc1[nH]c(=S)[nH]c1N` had a TGI of more than 100 µM.

Consider `N#CC1=C(Nc2ccccc2)SC=C(c2ccccc2)NC1=NCc1ccccc1`, for which the TGI is more than 100 µM.

In the case of `COC1=CC2C(c3cc4ccccc4n3S(=O)(=O)c3ccccc3)CC1CN2C(=O)OCc1ccccc1` (stereo unspecified), the TGI stood at 58.9 µM.

In the case of `CNC(=S)N=Nc1c(O)n(CN2CCOCC2)c2ccc([N+](=O)[O-])cc12`, the TGI is more than 100 µM.

On to `COc1ccc(-c2csc(Cc3nc4ccccc4c(=O)n3-c3ccc(Cl)cc3)n2)cc1`, for which the TGI was found to be 41.1 µM.

`CN(C)CCNC(=O)c1ccc2nc3c(nc2c1)C(=O)c1ccccc1-3` yielded a TGI of 32.1 µM.

As for `C/C(=N/NC(=S)Nc1ccc(Cl)cc1)c1cccc(/C(C)=N\NC(=S)Nc2ccc(Cl)cc2)n1`, the TGI worked out at 18.6 µM.

As to `COC(=O)C1(C(=O)OC)C/C(C)=C(/C)SCCCS1`, the TGI is more than 100 µM.

Turning to `CC1(C)CC(=O)C(C=NC(=O)c2ccncc2)=C(O)C1`, the TGI was more than 100 µM.

For another assay, the system named is BT-549 breast. Description: inhibition of tumour cell growth, NCI panel, 48 h.
Molecule `CC(C)CC(NC(=O)C(CI)Cc1ccccc1)C(=O)Nc1ccccc1` (stereo unspecified) returned a TGI of 57 µM.

In turn, `COc1ccc(-n2cnn3c(=O)c4cn[nH]c4nc23)cc1` yielded a TGI of more than 10 µM.

`c1ccc(NN=C(c2ccccn2)c2ccccn2)nc1` yielded a TGI of more than 100 µM.

`N#Cc1[nH]c(=S)[nH]c1N` yielded a TGI of more than 100 µM.

`COC1=CC2C(c3cc4ccccc4n3S(=O)(=O)c3ccccc3)CC1CN2C(=O)OCc1ccccc1` (stereo unspecified): the TGI came to 75.1 µM.

`COc1ccc(-c2csc(Cc3nc4ccccc4c(=O)n3-c3ccc(Cl)cc3)n2)cc1` yielded a TGI of more than 100 µM.

Regarding `COc1ccc(NC(=O)N(C)CC2(O)CCC(C(C)(C)C)CC2)cc1` (stereo unspecified), the TGI was more than 100 µM.

`CN(C)CCNC(=O)c1ccc2nc3c(nc2c1)C(=O)c1ccccc1-3` had a TGI of 41.3 µM.

The molecule `CC1(C)CC(=O)C(C=NC(=O)c2ccncc2)=C(O)C1` displayed a TGI of more than 100 µM.

Another assay has as its system LOX IMVI melanoma. The experiment in a line: inhibition of tumour cell growth, NCI panel, 48 h.
Molecule `S=c1[nH]c(=S)c2nnn(-c3ccccc3)c2[nH]1` registered a TGI of more than 100 µM.

Turning to `CC(C)CC(NC(=O)C(CI)Cc1ccccc1)C(=O)Nc1ccccc1` (stereo unspecified), the TGI was more than 100 µM.

In turn, `CC(CO)CCNc1ncnc2c1ncn2CCC(=O)OC(C)(C)C` (stereo unspecified) showed a TGI of more than 100 µM.

Turning to `COc1ccc(-n2cnn3c(=O)c4cn[nH]c4nc23)cc1`, the TGI is more than 10 µM.

In turn, `CC(C)(C)OC(=O)NC(Cc1ccc(OC(C)(C)C)cc1)C(=O)N[C@H]1CCC[C@H]1C(=O)NC(Cc1ccccc1)C(=O)N1CCCC1C(N)=O` (stereo partly specified) had a TGI of more than 100 µM.

`c1ccc(NN=C(c2ccccn2)c2ccccn2)nc1`: the TGI is more than 100 µM.

Molecule `N#Cc1[nH]c(=S)[nH]c1N` gave a TGI of more than 100 µM.

The molecule `COC1=CC2C(c3cc4ccccc4n3S(=O)(=O)c3ccccc3)CC1CN2C(=O)OCc1ccccc1` (stereo unspecified) yielded a TGI of 57.7 µM.

Molecule `CNC(=S)N=Nc1c(O)n(CN2CCOCC2)c2ccc([N+](=O)[O-])cc12` came in with a TGI of 31.8 µM.

As for `COc1ccc(-c2csc(Cc3nc4ccccc4c(=O)n3-c3ccc(Cl)cc3)n2)cc1`, the TGI was more than 100 µM.

On to `COc1ccc(NC(=O)N(C)CC2(O)CCC(C(C)(C)C)CC2)cc1` (stereo unspecified), for which the TGI came to 74.7 µM.

`CN(C)CCNC(=O)c1ccc2nc3c(nc2c1)C(=O)c1ccccc1-3` gave a TGI of 73.4 µM.

Turning to `C/C(=N/NC(=S)Nc1ccc(Cl)cc1)c1cccc(/C(C)=N\NC(=S)Nc2ccc(Cl)cc2)n1`, the TGI was 26.8 µM.
